{
  "source": "PubChem BioAssay AID1259409",
  "about": "(Chemical Carcinogenesis Research Information System (CCRIS), 2018)",
  "origin": "cited, not measured here",
  "test_system": "rodent chemically induced tumor inhibition, incidence and multiplicity",
  "assay": "CCRIS tumor inhibitor studies",
  "note": "“And” between values parts separate entries of the source, which are not always exact repeats. Equal values may be shown once.",
  "data": [
    {"smiles": "c1c[nH]cn1", "values": [
      {"measurement": "tumour outcome (control, treated, inhibition, significance)", "setting": "Carcinogen: N-METHYL-N-NITROSOUREA, 684-93-5, Dose [Inhibitor]: 1000 MG/KG OF LOW (3%) FAT DIET BEGINNING 1 WK POST CARCINOGEN DOSE AND CONTINUING FOR DURATION OF STUDY (STUDY DURATION, Route [Inhibitor]: ORAL, Species: RAT, Strain/Sex: SPRAGUE-DAWLEY/FEMALE, Target Tissue: Type of Lesion: MAMMARY GLAND: TUMOR, Dose [Carcinogen]: 40 MG/KG ONCE, Promoter: NONE USED", "result": "78%, 92%, -18%, not calculated"}
    ]},
    {"smiles": "CC(=O)Oc1ccccc1C(=O)Oc1ccccc1C(=O)O", "values": [
      {"measurement": "tumour outcome (control, treated, inhibition, significance)", "setting": "Carcinogen: NONE USED, Dose [Inhibitor]: 0, 0.1% IN CHOLINE-DEFICIENT DIET FOR 30 WK (STUDY DURATION: 30 WK), Route [Inhibitor]: ORAL, Species: RAT, Strain/Sex: F344/MALE, Target Tissue: Type of Lesion: LIVER: NEOPLASTIC NODULE, Promoter: NONE USED", "result": "8/8 (100%), 10/10 (100%), 0%, not significant and 4/4 (100%), 3/3 (100%), 0%, not significant"},
      {"measurement": "tumour outcome (control, treated, inhibition, significance)", "setting": "Carcinogen: NONE USED, Dose [Inhibitor]: 0, 0.2% IN CHOLINE-DEFICIENT DIET FOR 30 WK (STUDY DURATION: 30 WK), Route [Inhibitor]: ORAL, Species: RAT, Strain/Sex: F344/MALE, Target Tissue: Type of Lesion: LIVER: NEOPLASTIC NODULE, Promoter: NONE USED", "result": "8/8 (100%), 4/11 (36%), 64%, p<0.05 and 4/4 (100%), 3/3 (100%), 0%, not significant"},
      {"measurement": "tumour outcome (control, treated, inhibition, significance)", "setting": "Carcinogen: NONE USED, Dose [Inhibitor]: 0, 0.4% IN CHOLINE-DEFICIENT DIET FOR 30 WK (STUDY DURATION: 30 WK), Route [Inhibitor]: ORAL, Species: RAT, Strain/Sex: F344/MALE, Target Tissue: Type of Lesion: LIVER: NEOPLASTIC NODULE, Promoter: NONE USED", "result": "4/4 (100%), 0/4 (0%), 100%, p<0.05"},
      {"measurement": "tumour outcome (control, treated, inhibition, significance)", "setting": "Carcinogen: NONE USED, Dose [Inhibitor]: 0, 0.8% IN CHOLINE-DEFICIENT DIET FOR 30 WK (STUDY DURATION: 30 WK), Route [Inhibitor]: ORAL, Species: RAT, Strain/Sex: F344/MALE, Target Tissue: Type of Lesion: LIVER: NEOPLASTIC NODULE, Promoter: NONE USED", "result": "4/4 (100%), 0/3 (0%), 100%, p<0.05"}
    ]},
    {"smiles": "C=C(C)C1CC=C(CO)CC1", "note": "(centres undefined)", "values": [
      {"measurement": "tumour outcome (control, treated, inhibition, significance)", "setting": "Carcinogen: 4-(METHYLNITROSAMINO)-1-(3-PYRIDYL)-1-BUTANONE, 64091-91-4, Dose [Inhibitor]: 0, 75 MG/KG BW 3/WK FOR 22 WK BEGINNING 1 WK PRIOR TO CARCINOGEN TREATMENT (STUDY DURATION: 23 WK), Route [Inhibitor]: INTRAPERITONEAL, Species: MOUSE, Strain/Sex: C3AF1/MALE, Target Tissue: Type of Lesion: LUNG: TUMOR, Dose [Carcinogen]: 100 MG/KG BW 1/WK FOR 2 WK, Promoter: NONE USED", "result": "100%, 79%, 21%, p<0.005"},
      {"measurement": "tumour outcome (control, treated, inhibition, significance)", "setting": "Carcinogen: AZOXYMETHANE [25843-45-2], Dose [Inhibitor]: 1 G/KG IN DIET FOR 55 WK BEGINNING 2 WK PRIOR TO FIRST CARCINOGEN DOSE (STUDY DURATION: 55 WK), Route [Inhibitor]: ORAL, Species: RAT, Strain/Sex: F344/MALE, Target Tissue: Type of Lesion: COLON: ADENOCARCINOMA, Dose [Carcinogen]: 15 MG/KG BW 1/WK FOR 2 WK (STUDY DURATION: 55 WK), Promoter: NONE", "result": "78%, 64%, 18%, not significant and 78%, 56%, 29%, p<0.05"},
      {"measurement": "tumour outcome (control, treated, inhibition, significance)", "setting": "Carcinogen: AZOXYMETHANE [25843-45-2], Dose [Inhibitor]: 1 G/KG IN DIET FOR 55 WK BEGINNING 2 WK PRIOR TO FIRST CARCINOGEN DOSE (STUDY DURATION: 55 WK), Route [Inhibitor]: ORAL, Species: RAT, Strain/Sex: F344/MALE, Target Tissue: Type of Lesion: SMALL INTESTINE: ADENOCARCINOMA, Dose [Carcinogen]: 15 MG/KG BW 1/WK FOR 2 WK (STUDY DURATION: 55 WK), Promoter: NONE", "result": "31%, 28%, 9%, not significant"},
      {"measurement": "tumour outcome (control, treated, inhibition, significance)", "setting": "Carcinogen: AZOXYMETHANE [25843-45-2], Dose [Inhibitor]: 2 G/KG IN DIET FOR 55 WK BEGINNING 2 WK PRIOR TO FIRST CARCINOGEN DOSE (STUDY DURATION: 55 WK), Route [Inhibitor]: ORAL, Species: RAT, Strain/Sex: F344/MALE, Target Tissue: Type of Lesion: SMALL INTESTINE: ADENOCARCINOMA, Dose [Carcinogen]: 15 MG/KG BW 1X/WK FOR 2 WK (STUDY DURATION: 55 WK), Promoter: NONE", "result": "31%, 11%, 64%, p<0.05"}
    ]},
    {"smiles": "C/C(=C\\c1ccc(C(=O)O)cc1)c1ccc2c(c1)C(C)(C)CCC2(C)C", "values": [
      {"measurement": "tumour outcome (control, treated, inhibition, significance)", "setting": "Carcinogen: 7,12-DIMETHYLBENZ[A]ANTHRACENE, 57-97-6, Dose [Inhibitor]: 0.17 NMOL IN 0.2 ML ACETONE 1 HR PRIOR TO EACH PROMOTER DOSE FOR 12 WK (STUDY DURATION: 14 WK), Route [Inhibitor]: DERMAL, Species: MOUSE, Strain/Sex: SENCAR/FEMALE, Target Tissue: Type of Lesion: SKIN: PAPILLOMA, Dose [Carcinogen]: 200 NMOL IN 0.2 ML ACETONE ONCE, Promoter: 12-O-TETRADECANOYLPHORBOL-13-ACETATE, 16561-29-8", "result": "100%, 100%, 0%, not calculated"},
      {"measurement": "tumour outcome (control, treated, inhibition, significance)", "setting": "Carcinogen: 7,12-DIMETHYLBENZ[A]ANTHRACENE, 57-97-6, Dose [Inhibitor]: 0.17 NMOL IN 0.2 ML ACETONE 1 HR PRIOR TO EACH PROMOTER DOSE FOR 20 WK (STUDY DURATION: 22 WK), Route [Inhibitor]: DERMAL, Species: MOUSE, Strain/Sex: CD-1/FEMALE, Target Tissue: Type of Lesion: SKIN: PAPILLOMA, Dose [Carcinogen]: 200 NMOL IN 0.2 ML ACETONE ONCE, Promoter: 12-O-TETRADECANOYLPHORBOL-13-ACETATE, 16561-29-8", "result": "94%, 80%, 15%, not calculated"},
      {"measurement": "tumour outcome (control, treated, inhibition, significance)", "setting": "Carcinogen: 7,12-DIMETHYLBENZ[A]ANTHRACENE, 57-97-6, Dose [Inhibitor]: 1.7 NMOL IN 0.2 ML ACETONE 1 HR PRIOR TO EACH PROMOTER DOSE FOR 12 WK (STUDY DURATION: 14 WK), Route [Inhibitor]: DERMAL, Species: MOUSE, Strain/Sex: SENCAR/FEMALE, Target Tissue: Type of Lesion: SKIN: PAPILLOMA, Dose [Carcinogen]: 200 NMOL IN 0.2 ML ACETONE ONCE, Promoter: 12-O-TETRADECANOYLPHORBOL-13-ACETATE, 16561-29-8", "result": "100%, 78%, 22%, not calculated"},
      {"measurement": "tumour outcome (control, treated, inhibition, significance)", "setting": "Carcinogen: 7,12-DIMETHYLBENZ[A]ANTHRACENE, 57-97-6, Dose [Inhibitor]: 1.7 NMOL IN 0.2 ML ACETONE 1 HR PRIOR TO EACH PROMOTER DOSE FOR 20 WK (STUDY DURATION: 22 WK), Route [Inhibitor]: DERMAL, Species: MOUSE, Strain/Sex: CD-1/FEMALE, Target Tissue: Type of Lesion: SKIN: PAPILLOMA, Dose [Carcinogen]: 200 NMOL IN 0.2 ML ACETONE ONCE, Promoter: 12-O-TETRADECANOYLPHORBOL-13-ACETATE, 16561-29-8", "result": "94%, 31%, 67%, not calculated"},
      {"measurement": "tumour outcome (control, treated, inhibition, significance)", "setting": "Carcinogen: 7,12-DIMETHYLBENZ[A]ANTHRACENE, 57-97-6, Dose [Inhibitor]: 17 NMOL IN 0.2 ML ACETONE 1 HR PRIOR TO EACH PROMOTER DOSE FOR 12 WK (STUDY DURATION: 14 WK), Route [Inhibitor]: DERMAL, Species: MOUSE, Strain/Sex: SENCAR/FEMALE, Target Tissue: Type of Lesion: SKIN: PAPILLOMA, Dose [Carcinogen]: 200 NMOL IN 0.2 ML ACETONE ONCE, Promoter: 12-O-TETRADECANOYLPHORBOL-13-ACETATE, 16561-29-8", "result": "100%, 0%, 100%, not calculated"}
    ]},
    {"smiles": "Cc1c[nH]c(=O)[nH]c1=O", "values": [
      {"measurement": "tumour outcome (control, treated, inhibition, significance)", "setting": "Carcinogen: 7,12-DIMETHYLBENZ[A]ANTHRACENE, 57-97-6, Dose [Inhibitor]: 1% IN 20% PROTEIN DIET AND 0.5% IN DRINKING WATER (STUDY DURATION: 150 D), Route [Inhibitor]: ORAL, Species: RAT, Strain/Sex: STRAIN-CB/FEMALE, Target Tissue: Type of Lesion: MAMMARY GLAND: TUMOR, Dose [Carcinogen]: 15 MG IN 1 ML ARACHIS OIL TWICE 14 D APART, Promoter: NONE USED", "result": "11/11 (100%), 6/11 (55%), 45%, not calculated"},
      {"measurement": "tumour outcome (control, treated, inhibition, significance)", "setting": "Carcinogen: 7,12-DIMETHYLBENZ[A]ANTHRACENE, 57-97-6, Dose [Inhibitor]: 1.5% IN 20% PROTEIN DIET (STUDY DURATION: 100 D), Route [Inhibitor]: ORAL, Species: RAT, Strain/Sex: STRAIN-CB/FEMALE, Target Tissue: Type of Lesion: MAMMARY GLAND: TUMOR, Dose [Carcinogen]: 15 MG IN 1 ML ARACHIS OIL THREE DOSES GIVEN 1/2 WK, Promoter: NONE USED", "result": "18/18 (100%), 16/20 (80%), 20%, not calculated"},
      {"measurement": "tumour outcome (control, treated, inhibition, significance)", "setting": "Carcinogen: NONE USED, Dose [Inhibitor]: 0.4% IN DRINKING WATER, STARTING AT 7-9 WK OF AGE AND CONTINUING FOR DURATION OF STUDY (STUDY DURATION: 10-12 MO), Route [Inhibitor]: ORAL, Species: MOUSE, Strain/Sex: STRAIN-A/MALE, FEMALE, Target Tissue: Type of Lesion: LUNG: ADENOMA, Promoter: NONE USED", "result": "48%, 17%, 65%, p 0.02"}
    ]},
    {"smiles": "CCCCNC(=O)/C=C(C)/C=C/C=C(C)/C=C/C1=C(C)CCCC1(C)C", "values": [
      {"measurement": "tumour outcome (control, treated, inhibition, significance)", "setting": "Carcinogen: N-BUTYL-N-(4-HYDROXYBUTYL)NITROSAMINE, 3817-11-6, Dose [Inhibitor]: 1.5 MMOL/KG DIET DAILY FOR 133 D STARTING ONE WK AFTER THE FINAL CARCINOGEN DOSE (STUDY DURATION: 190 D), Route [Inhibitor]: ORAL, Species: MOUSE, Strain/Sex: BDF/MALE, Target Tissue: Type of Lesion: URINARY BLADDER: TRANSITIONAL CELL CARCINOMA, Dose [Carcinogen]: 7.5 MG 1/WK FOR 8 WK, Promoter: NONE USED", "result": "21/100 (21%), 19/100 (19%), 10%, not significant"},
      {"measurement": "tumour outcome (control, treated, inhibition, significance)", "setting": "Carcinogen: N-BUTYL-N-(4-HYDROXYBUTYL)NITROSAMINE, 3817-11-6, Dose [Inhibitor]: 1.5 MMOL/KG IN DIET FOR 133 D STARTING 1 WK AFTER THE LAST CARCINOGEN DOSE (STUDY DURATION: 190 D), Route [Inhibitor]: ORAL, Species: MOUSE, Strain/Sex: DBF1/MALE, Target Tissue: Type of Lesion: URINARY BLADDER: TRANSITIONAL CELL CARCINOMA, Dose [Carcinogen]: 7.5 MG 1/WK FOR 8 WK, Promoter: NONE USED", "result": "21/100 (21%), 19/100 (19%), 10%, not significant"}
    ]}
  ]
}
